Consider 29 compounds from patent publication US7563903B2, “Acylaminothiazole derivatives, their preparation and their therapeutic use” (Sanofi-Aventis, priority 2003, dated 2009).

Structures are written as SMILES. Where “and” joins values, the source holds several entries; their conditions need not be identical. Equal entries are not always repeated.

One may read the melting point as the temperature, or range, at which the solid turns liquid. In turn, `C[C@H](NC(=O)[C@@H](O)C(C)(C)C)C(=O)Nc1ncc(-c2ccccc2COC2CCCCC2)s1` [compound 66, (2S)—N-{(1S)-2-[(5-{2-[(cyclohexyloxy)methyl]phenyl}-1,3-thiazol-2-yl)amino]-1-methyl-2-oxoethyl}-2-hydroxy-3,3-dimethylbutanamide] came in with a melting point of 104.8 °C. Compound `CCC[C@H](NC(=O)[C@@H](O)C(C)(C)C)C(=O)Nc1ncc(-c2ccccc2COc2c(C)cccc2C)s1` [compound 28, (2S)—N-(5-{2-[(2,6-dimethylphenoxy)methyl]phenyl}-1,3-thiazol-2-yl)-2-{[(2S)-2-hydroxy-3,3-dimethylbutanoyl]amino}pentanamide] had a melting point of 87 °C. With `CCC[C@H](NC(=O)[C@@H](O)C(C)(C)C)C(=O)Nc1ncc(-c2ccc(OC)cc2COc2ccccc2)s1` [compound 18, (2S)-2-{[(2S)-2-hydroxy-3,3-dimethylbutanoyl]amino}-N-{5-[4-methoxy-2-(phenoxymethyl)phenyl]-1,3-thiazol-2-yl}pentanamide] the figure was 117 °C.

In the case of `CCC[C@H](NC(=O)[C@@H](O)C(C)(C)C)C(=O)Nc1ncc(-c2ccc(C)cc2COc2ccccc2)s1` [compound 59, (2S)-2-{[(2S)-2-hydroxy-3,3-dimethylbutanoyl]amino}-N-{5-[4methyl-2-(phenoxymethyl)phenyl]-1,3-thiazol-2-yl}pentanamide], the melting point worked out at 92.6 °C. With `CCC[C@H](NC(=O)[C@@H](O)C(C)(C)C)C(=O)Nc1ncc(-c2cc(Cl)ccc2COc2ccccc2)s1` [compound 55, (2S)—N-{5-[5-chloro-2-(phenoxymethyl)phenyl]-1,3-thiazol-2-yl}-2-{[(2S)-2-hydroxy-3,3-dimethylbutanoyl]amino}pentanamide] the figure was 120.7 °C. With `CCC[C@H](NC(=O)[C@@H](O)C(C)(C)C)C(=O)Nc1ncc(-c2ccccc2COc2cc(OC)cc(OC)c2)s1` [compound 25, (2S)—N-(5-{2-[(3,5-dimethoxyphenoxy)methyl]-phenyl}-1,3-thiazol-2-yl)-2-{[(2S)-2-hydroxy-3,3-dimethylbutanoyl]amino}pentanamide] the figure was 66.5 °C; with `CCC[C@H](NC(=O)C(=O)C(C)CC)C(=O)Nc1ncc(-c2ccccc2COC(C)C)s1` (stereo partly drawn) [compound 14, N-{(1S)-1-[({5-[2-(isopropoxymethyl)phenyl]-1,3-thiazol-2-yl}amino)carbonyl]butyl}-3-methyl-2-oxopentanamide], 112 °C. Next, `CCC[C@H](NC(=O)[C@@H](O)C(C)(C)C)C(=O)Nc1ncc(-c2ccccc2COc2ccccc2C#N)s1` [compound 69, (2S)—N-(5-{2-[(2-cyanophenoxy)methyl]phenyl}-1,3-thiazol-2-yl)-2-{[(2S)-2-hydroxy-3,3-dimethylbutanoyl]amino}pentanamide]: 99 °C; `CCC[C@H](NC(=O)[C@H](O)C(CC)CC)C(=O)Nc1ncc(-c2ccccc2COc2ccccc2)s1` (racemic) [Compound No. 42, (2R)-3-ethyl-2-hydroxy-N-{(1S)-1-[({5-[2-(phenoxymethyl)phenyl]-1,3-thiazol-2-yl}amino)carbonyl]butyl}pentanamide]: 67.4 °C and 67.5 °C; `CCC[C@H](NC(=O)[C@@H](O)C(C)(C)C)C(=O)Nc1ncc(-c2ccccc2COc2ccccc2F)s1` [compound 19, (2S)—N-(5-{2-[(2-fluorophenoxy)methyl]phenyl}-1,3-thiazol-2-yl)-2-{[(2S)-2-hydroxy-3,3-dimethylbutanoyl]amino}pentanamide]: 92 °C.

`CCC[C@H](NC(=O)C(O)C(C)(C)C)C(=O)Nc1ncc(-c2ccccc2COc2ccccc2OC)s1` (stereo partly drawn) [compound 38, (2S)-2-[(2-hydroxy-3,3-dimethylbutanoyl)amino]-N-(5-{2-[(2-methoxyphenoxy)methyl]phenyl}-1,3-thiazol-2-yl}pentanamide] displayed a melting point of 85 °C. With `CCC[C@H](NC(=O)[C@@H](O)C(C)(C)C)C(=O)Nc1ncc(-c2ccccc2COc2ccncc2)s1` [Compound No. 70, (2S)-2-{[(2S)-2-hydroxy-3,3-dimethylbutanoyl]amino}-N-(5-{2-[(4-pyridinyloxy)methyl]phenyl}-1,3-thiazol-2-yl)pentanamide] the figure was 112.7 °C; with `CCC[C@H](NC(=O)[C@@H](O)C(C)(C)C)C(=O)Nc1ncc(-c2ccccc2COc2cc(C)c(C)cc2Cl)s1` [compound 71, (2S)—N-(5-{2-[(2-chloro-4,5-dimethylphenoxy)methyl]phenyl}-1,3-thiazol-2-yl)-2-{[(2S)-2-hydroxy-3,3-dimethylbutanoyl]amino}pentanamide], 85 °C. Next, `CCC[C@H](NC(=O)[C@@H](O)C(C)(C)C)C(=O)Nc1ncc(-c2ccccc2COCC)s1` [compound 15, (2S)—N-{5-[2-(ethoxymethyl)phenyl]-1,3-thiazol-2-yl}-2-{[(2S)-2-hydroxy-3,3-dimethylbutanoyl]amino}pentanamide]: 148 °C. Next, `CCC[C@H](NC(=O)[C@@H](O)C(C)(C)C)C(=O)Nc1ncc(-c2cc(C)ccc2COc2ccccc2)s1` [compound 64, (2S)-2-{[(2S)-2-hydroxy-3,3-dimethylbutanoyl]amino}-N-{5-[5-methyl-2-(phenoxymethyl)phenyl]-1,3-thiazol-2-yl}pentanamide]: 170 °C; `CCC[C@H](NC(=O)C(O)CC(C)C)C(=O)Nc1ncc(-c2ccccc2COC2CCCCC2)s1` (stereo partly drawn) [Compound No. 4, N-((1S)-1-{[(5-{2-[(cyclohexyloxy)methyl]phenyl}-1,3-thiazol-2-yl)amino]carbonyl}butyl)-2-hydroxy-4-methylpentanamide]: 85 °C. Turning to `CCC[C@H](NC(=O)[C@@H](O)C(C)(C)C)C(=O)Nc1ncc(-c2cc(F)ccc2COc2ccccc2)s1` [compound 54, (2S)—N-{5-[5-fluoro-2-(phenoxymethyl)phenyl]-1,3-thiazol-2-yl}-2-{[(2S)-2-hydroxy-3,3-dimethylbutanoyl]amino}pentanamide], the melting point was found to be 105.4 °C. With `CCC[C@H](NC(=O)[C@@H](O)C(C)(C)C)C(=O)Nc1ncc(-c2ccccc2COc2c(F)cccc2F)s1` [compound 46, (2S)—N-(5-{2-[(2,6-difluorophenoxy)methyl]phenyl}-1,3-thiazol-2-yl)-2-{[(2S)-2-hydroxy-3,3-dimethylbutanoyl]amino}pentanamide] the figure was 63.5 °C; with `CCC[C@H](NC(=O)[C@@H](O)C(C)C)C(=O)Nc1ncc(-c2ccccc2COc2cccc(F)c2)s1` [compound 63, (2S)—N-(5-{2-[(3-fluorophenoxy)methyl]phenyl}-1,3-thiazol-2-yl)-2-{[(2S)-2-hydroxy-3-methylbutanoyl]amino}pentanamide], 130.7 °C.

Turning to `CCC[C@H](NC(=O)[C@@H](O)C(C)(C)C)C(=O)Nc1ncc(-c2ccccc2COc2cccc(C)c2)s1` [compound 68, (2S)-2-{[(2S)-2-hydroxy-3,3-dimethylbutanoyl]amino}-N-(5-{2-[(3-methylphenoxy)methyl]phenyl}-1,3-thiazol-2-yl)pentanamide], the melting point amounted to 80.6 °C. Next, `CCC[C@H](NC(=O)[C@@H](O)C(C)(C)C)C(=O)Nc1ncc(-c2ccccc2COc2ccccc2CC)s1` [compound 20, (2S)—N-(5-{2-[(2-ethylphenoxy)methyl]phenyl}-1,3-thiazol-2-yl)-2-{[(2S)-2-hydroxy-3,3-dimethylbutanoyl]amino}pentanamide]: 107 °C; `CCC[C@H](NC(=O)[C@@H](O)C(C)(C)C)C(=O)Nc1ncc(-c2ccccc2COc2cc(C)ccc2C)s1` [compound 33, (2S)—N-(5-{2-[(2,5-dimethylphenoxy)methyl]phenyl}-1,3-thiazol-2-yl)-2{[(2S)-2-hydroxy-3,3-dimethylbutanoyl]amino}pentanamide]: 87 °C. As for `CCC[C@H](NC(=O)[C@@H](O)C(C)(C)C)C(=O)Nc1ncc(-c2ccccc2COc2ccccc2)s1` [Compound No. 9, (2S)-2-{[(2S)-2-hydroxy-3,3-dimethylbutanoyl]amino}-N-{5-[2-(phenoxymethyl)phenyl]-1,3-thiazol-2-yl}pentanamide], the melting point came out at 84 °C. In the case of `CCC[C@H](NC(=O)[C@@H](O)C(C)(C)C)C(=O)Nc1ncc(-c2ccccc2COc2cccc(OC)c2OC)s1` [compound 23, (2S)—N-(5-{2-[(2,3-dimethoxyphenoxy)methyl]-phenyl}-1,3-thiazol-2-yl)-2-{[(2S)-2-hydroxy-3,3-dimethylbutanoyl]amino}pentanamide], the melting point is 99 °C. With `CCC[C@H](NC(=O)[C@@H](O)C(C)(C)C)C(=O)Nc1ncc(-c2ccccc2COc2cccc(F)c2F)s1` [compound 74, (2S)—N-(5-{2-[(2,3-difluorophenoxy)methyl]phenyl}-1,3-thiazol-2-yl)-2-{[(2S)-2-hydroxy-3,3-dimethylbutanoyl]amino}pentanamide] the figure was 82 °C. For `C[C@H](NC(=O)[C@@H](O)C(C)(C)C)C(=O)Nc1ncc(-c2ccccc2COc2ccccc2)s1` [compound 58, (2S)-2-hydroxy-3,3-dimethyl-N-[(1S)-1-methyl-2-oxo-2-({5-[2-(phenoxymethyl)phenyl]-1,3-thiazol-2-yl}amino)ethyl]butanamide], the melting point was determined as 118.6 °C. With `CCC[C@H](NC(=O)[C@@H](O)C(C)(C)C)C(=O)Nc1ncc(-c2ccc(OC)cc2COC(C)C)s1` [compound 44, (2S)-2-{[(2S)-2-hydroxy-3,3-dimethylbutanoyl]amino}-N-{5-[2-(isopropoxymethyl)-4-methoxyphenyl]-1,3-thiazol-2-yl}pentanamide] the figure was 79 °C. For the compound `CCC[C@H](NC(=O)[C@@H](O)C(C)(C)C)C(=O)Nc1ncc(-c2ccccc2COc2ccccc2OC(F)(F)F)s1` [compound 24, (2S)-2-{[(2S)-2-hydroxy-3,3-dimethylbutanoyl]amino}-N-[5-(2-{[2-(trifluoromethoxy)phenoxy]methyl}phenyl)-1,3-thiazol-2-yl]pentanamide], the melting point is 66 °C. Next, `CCC[C@H](NC(=O)[C@@H](O)C(C)(C)C)C(=O)Nc1ncc(-c2ccccc2COC2CCCCC2)s1` [compound 57, (2S)—N-(5-{2-[(cyclohexyloxy)methyl]phenyl}-1,3-thiazol-2-yl)-2-{[(2S)-2-hydroxy-3,3-dimethylbutanoyl]amino}pentanamide]: 88 °C.
